From paper PMC8779255, “Determining the Anticancer Activity of Sphingosine Kinase Inhibitors Containing Heteroatoms in Their Tail Structure” (Pharmaceutics, 2022)
Like-named read-outs stand apart in the source and are kept apart here.

Columns and labels:
[1] = test system: HCT116 cells; test: MTT cell viability assay; type: cell-based, human; conditions: for IC50: Homo sapiens, HCT-116, read-out: relative IC50 (cell viability)
Procedure: (§1) The HT29 and HCT116 cells (human colon cancer), AGS (human gastric cancer), and MIA PaCa-2 cells (human pancreatic cancer) were purchased from Korean Cell Line Bank (Seoul, Korea). Cancer cells were maintained in RPMI (HT29 and AGS) and DMEM (HCT116 and MIA PaCa-2) culture media supplemented with 10% fetal bovine serum (FBS) and 100 U/mL penicillin and streptomycin at 37 °C in a 95% humidified incubator containing 5% CO2. The cytotoxic effect of the compounds was assessed using the MTT cell viability assay. Briefly, 3 × 10^3 cells/well were grown in 96-well plates for 24 h. After treatment with desired concentration of respective compounds for 24 h or 48 h, the EZ-CYTOTOX (10 µM) reagent was added in each well and incubated for 90 min. The absorbance was measured at 450 nm wavelength using Skanlt software 5.0 (Thermo Scientific, Waltham, MA, USA) installed on a Multiskan GO (Thermo Scientific, Waltham, MA, USA) spectrophotometer. Each experiment was independently repeated three times (n = 12).

[2] = test system: HT29 cells; test: MTT cell viability assay; type: cell-based, human; conditions: for IC50: Homo sapiens, HT-29, read-out: relative IC50 (cell viability)
Procedure: as §1

[3] = test system: PARP, caspase-3, Bcl-2, BAX in HCT116 cells; test: Western blotting of apoptotic pathway-related proteins; type: cell-based, human
Procedure: The cell lysate was prepared after successive treatment using mammalian protein extraction buffer (Organic buffer + 10 mM NaCl + detergent pH 7.5) mixed with 1% protease/phosphatase inhibitor cocktail; protein was quantified with BCA assay, boiled at 95 °C for 10 min by adding sample loading buffer, separated using SDS-PAGE, and transferred into methanol-activated PVDF membrane. Primary antibodies were probed overnight in PVDF membrane at 4 °C and […] with subsequent HRP anti-mouse and anti-rabbit secondary antibodies at room temperature. Then, membranes were washed with TBST buffer, and images were detected by Amersham Imager 680 (GE Healthcare; Leiden, WZ, The Netherlands) using ECL solution. Band intensities were analyzed and quantified using Image J software (version 1.53i).

[4] = test system: ceramide in HCT116 cells; test: Ceramide ELISA of cell lysate; type: cell-based, human; conditions: HCT116, 20 µM, 24 h
Procedure: The cellular levels of S1P, sphingosine, and ceramide were detected using an ELISA assay kit (MyBioSource, Inc., San Diego, CA, USA) according to the manufacturer’s instruction. For S1P ELISA, 100 µL cell lysates or standards were added in pre-coated ELISA wells, incubated for 90 min at 37 °C, and treated with 1x biotinylated anti S1P antibody for 1 h. Following treatment of HRP conjugated secondary antibody, the substrate was added and allowed to change the color for 15 min; then, the stop solution was added and absorbance was measured at 450 nm using a Multiskan GO (Thermo Scientific, Waltham, MA, USA) microplate spectrophotometer. […] A stop solution (50 µL) was added to each well, and optical density was measured at 450 nm using a microplate reader. […] After incubation, 50 µL substrate A and B was added to the plate and incubated at 37 °C for 20 min; a stop solution (50 µL) was added to each well and optical density was determined at 450 nm using a microplate reader. The concentration of S1P, sphingosine, and ceramide were calculated as ng/mL using respective standard curves constructed by Skanlt microplate reader software 5.0 (Thermo Scientific, Waltham, MA, USA).

[5] = target: T1, CYP1A2 (Homo sapiens, UniProt P05177); test: Inhibition of CYP enzymes activity, human liver microsomes; conditions: human liver microsomes 0.25 mg/mL, 10 μM, phenacetin substrate
T1 sequence (P05177 1-516): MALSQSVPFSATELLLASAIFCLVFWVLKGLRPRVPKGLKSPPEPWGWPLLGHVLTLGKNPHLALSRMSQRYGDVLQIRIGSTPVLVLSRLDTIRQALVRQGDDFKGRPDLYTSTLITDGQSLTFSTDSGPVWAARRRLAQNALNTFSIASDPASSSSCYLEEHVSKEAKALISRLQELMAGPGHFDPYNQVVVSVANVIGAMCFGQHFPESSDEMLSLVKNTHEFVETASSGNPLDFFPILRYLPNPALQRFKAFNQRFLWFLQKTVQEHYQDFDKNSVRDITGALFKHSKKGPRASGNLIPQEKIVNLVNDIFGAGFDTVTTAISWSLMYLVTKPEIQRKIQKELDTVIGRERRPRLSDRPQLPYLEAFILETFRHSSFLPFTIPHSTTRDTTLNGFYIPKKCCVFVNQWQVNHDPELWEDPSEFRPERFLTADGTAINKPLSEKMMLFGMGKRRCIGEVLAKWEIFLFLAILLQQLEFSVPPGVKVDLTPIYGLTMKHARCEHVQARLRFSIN
Procedure: (§2) Afterward, to terminate the reaction, an acetonitrile solution containing an internal standard (terfenadine) was added, centrifuged for 5 min (14,000 rpm, 4 °C), and the supernatant was injected into the LC-MS/MS system. By simultaneously analyzing metabolites, the ability of the six compounds to inhibit drug metabolism enzymes was evaluated.
(§3) Metabolites of each CYP coenzyme indicator drug generated through the above reaction were analyzed using the Shimadzu Nexera XR system and TSQ vantage (Thermo). The HPLC column was a Kinetex C18 column (2.1 × 100 mm^2, 2.6 μm particle size; Phenomenex, Torrance, CA, USA), and the mobile phase was distilled water (A) containing 0.1% formic acid and acetonitrile (B) containing 0.1% formic acid. […] The generated metabolites were quantified using MRM (Multiple Reaction Monitoring) quantification modes, and data were analyzed using Xcalibur (version 1.6.1).

[6] = target: CYP2C9 (Homo sapiens, UniProt P11712); test: as above; conditions: human liver microsomes 0.25 mg/mL, 10 μM, diclofenac substrate
Sequence of CYP2C9 (P11712 whole entry): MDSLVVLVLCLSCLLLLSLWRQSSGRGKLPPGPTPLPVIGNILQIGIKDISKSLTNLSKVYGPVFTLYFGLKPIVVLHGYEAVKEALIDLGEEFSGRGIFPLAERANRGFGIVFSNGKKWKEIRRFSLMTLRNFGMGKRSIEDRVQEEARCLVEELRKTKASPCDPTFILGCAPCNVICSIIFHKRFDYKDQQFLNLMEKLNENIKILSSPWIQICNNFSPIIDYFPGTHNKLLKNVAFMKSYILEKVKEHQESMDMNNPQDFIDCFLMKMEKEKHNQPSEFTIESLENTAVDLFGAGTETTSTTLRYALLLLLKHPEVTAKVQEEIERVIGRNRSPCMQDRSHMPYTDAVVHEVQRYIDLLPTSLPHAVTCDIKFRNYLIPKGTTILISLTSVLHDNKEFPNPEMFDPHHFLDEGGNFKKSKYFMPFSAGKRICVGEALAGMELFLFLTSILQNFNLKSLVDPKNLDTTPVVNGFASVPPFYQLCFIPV
Procedure: By simultaneously analyzing metabolites, the ability of the six compounds to inhibit drug metabolism enzymes was evaluated.
as §3

[7] = target: CYP2D6 (Homo sapiens, UniProt P10635); test: as above; conditions: human liver microsomes 0.25 mg/mL, 10 μM, dextromethorphan substrate
Sequence of CYP2D6 (P10635 whole entry): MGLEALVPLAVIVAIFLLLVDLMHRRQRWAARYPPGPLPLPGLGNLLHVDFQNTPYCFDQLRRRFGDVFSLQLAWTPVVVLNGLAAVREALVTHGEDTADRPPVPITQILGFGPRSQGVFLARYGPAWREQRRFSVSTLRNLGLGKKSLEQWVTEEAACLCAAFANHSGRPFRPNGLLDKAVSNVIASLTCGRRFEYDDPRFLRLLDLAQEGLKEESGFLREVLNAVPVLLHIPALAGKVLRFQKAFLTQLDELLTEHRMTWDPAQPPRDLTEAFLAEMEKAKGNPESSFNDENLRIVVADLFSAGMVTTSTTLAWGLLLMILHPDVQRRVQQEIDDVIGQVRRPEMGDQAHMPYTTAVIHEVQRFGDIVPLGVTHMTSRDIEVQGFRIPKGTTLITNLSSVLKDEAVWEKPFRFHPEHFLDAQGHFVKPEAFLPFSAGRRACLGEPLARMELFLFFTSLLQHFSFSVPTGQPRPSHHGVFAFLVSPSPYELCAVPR
Procedure: as §2, §3

- IC50 ([1]; HCT116, 24 h treatment): 10.9 µM
- IC50 ([1]; HCT116, 48 h treatment, 2.5–40 µM): 8.69 µM
- IC50 ([2]; HT29, 24 h treatment): 10.5 µM
- IC50 ([2]; HT29, 48 h treatment, 2.5–40 µM): 6.22 µM
- CYP1A2 activity (% of control activity) [5]: >100%
- CYP2C9 activity (% of control activity) [6]: >100%
- CYP2D6 activity (% of control activity) [7]: 87.4%
SMILES: CCCCCCCOc1ccc(CCN2CCN(CCO)CC2)cc1 [Compound 10, 2-(4-(4-(Heptyloxy)phenethyl)piperazin-1-yl)ethanol]
- cytotoxic effect, comparison ([1]; HCT116, 10, 20 and 40 µM, Supplementary Figure S1C): higher than compounds 11, 13, and PF-543
- cytotoxic effect (cell viability) ([1]; HCT116, 20 and 40 µM, 24 h, Figure 2B): significant cytotoxic effects in both 20 and 40 µM concentrations
- cytotoxic effect (cell viability) ([2]; HT29, 20 and 40 µM, 24 h, Figure 2A): more cytotoxic than RB005 and 5-FU
- expression of antiapoptotic Bcl-2 protein ([3]; HCT116, 10 and 20 µM): decreased the expression of antiapoptotic Bcl-2 protein
- expression of proapoptotic protein BAX ([3]; HCT116, 10 and 20 µM): increased the expression of proapoptotic protein BAX
- cleavage of caspase-3 ([3]; HCT116, 10 and 20 µM, vs nontreated control): effectively increased the cleavage
- cleaved PARP level ([3]; HCT116, vs nontreated groups): increased cleaved PARP level
- ceramide level [4]: increased
